Source: US20240158393A1, “PYRIDONE COMPOUNDS AND METHODS OF USE” (Exelixis, Inc., priority 2021, published 2024)

Legend:
[1] = biological target: T1, Human Axl (Homo sapiens, UniProt P30530); test: Human AXL kinase assay (33P radiometric / HTRF KinEase); format: biochemical; details: protocols of Examples A-1 and/or A-2
T1 construct: Human AXL (residues 464-885)
T1 sequence (P30530 1-894 Q764R): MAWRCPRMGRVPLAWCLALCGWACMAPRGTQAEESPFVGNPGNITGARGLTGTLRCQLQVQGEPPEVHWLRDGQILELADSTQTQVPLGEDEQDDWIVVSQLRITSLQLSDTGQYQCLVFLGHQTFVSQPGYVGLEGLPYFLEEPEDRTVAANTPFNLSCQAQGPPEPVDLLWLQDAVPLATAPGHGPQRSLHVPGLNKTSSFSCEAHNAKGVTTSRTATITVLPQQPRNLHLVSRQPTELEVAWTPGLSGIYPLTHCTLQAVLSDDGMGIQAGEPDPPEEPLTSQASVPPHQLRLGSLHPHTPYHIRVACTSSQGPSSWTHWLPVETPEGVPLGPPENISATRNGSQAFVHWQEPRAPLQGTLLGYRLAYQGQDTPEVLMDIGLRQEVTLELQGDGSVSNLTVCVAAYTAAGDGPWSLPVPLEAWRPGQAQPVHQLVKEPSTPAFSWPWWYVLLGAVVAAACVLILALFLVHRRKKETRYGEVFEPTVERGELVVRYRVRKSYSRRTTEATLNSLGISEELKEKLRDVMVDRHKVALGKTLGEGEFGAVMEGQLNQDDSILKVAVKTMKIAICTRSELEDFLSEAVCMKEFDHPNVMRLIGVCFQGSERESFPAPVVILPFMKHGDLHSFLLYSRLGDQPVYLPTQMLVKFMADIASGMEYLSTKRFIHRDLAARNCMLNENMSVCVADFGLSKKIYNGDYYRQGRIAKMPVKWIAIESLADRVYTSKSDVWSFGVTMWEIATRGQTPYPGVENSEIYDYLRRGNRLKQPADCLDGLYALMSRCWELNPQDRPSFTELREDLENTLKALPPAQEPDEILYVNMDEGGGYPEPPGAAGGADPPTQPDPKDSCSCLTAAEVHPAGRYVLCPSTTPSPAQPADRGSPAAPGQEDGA

[2] = biological target: T2, Human Met (Homo sapiens, UniProt P08581); test: Human Met kinase assay (33P radiometric / HTRF KinEase); format: biochemical; details: protocols of Examples D-1 and/or D-2; read-out: c-Met IC50
T2 construct: Human MET (residues 956-1390)
T2 sequence (P08581 974-1390 limits assumed): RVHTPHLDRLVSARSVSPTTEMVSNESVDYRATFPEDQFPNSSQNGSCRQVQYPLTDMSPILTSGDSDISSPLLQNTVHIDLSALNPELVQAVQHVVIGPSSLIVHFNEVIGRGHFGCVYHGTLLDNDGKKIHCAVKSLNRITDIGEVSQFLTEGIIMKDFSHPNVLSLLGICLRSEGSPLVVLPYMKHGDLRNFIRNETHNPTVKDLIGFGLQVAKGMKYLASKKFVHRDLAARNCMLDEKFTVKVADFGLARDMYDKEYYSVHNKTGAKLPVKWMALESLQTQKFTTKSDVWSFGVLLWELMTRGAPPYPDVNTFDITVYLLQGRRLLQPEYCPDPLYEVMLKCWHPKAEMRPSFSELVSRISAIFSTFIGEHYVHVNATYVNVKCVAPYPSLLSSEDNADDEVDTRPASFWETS
Method in brief: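 Two formats gave IC50s by curve fitting. HTRF KinEase used MET residues 956-1390 with 1 μM biotin-peptide and 3.0 μM ATP (Km) for 40 min at room temperature, ten doses in 3% DMSO, 665/620 nm read. The 33P transfer assay used mutant Met R974-S1390 A1209G/V1290L (3.4 nM), 10 μM ATP, 250 μM peptide, pH 7.0, 40 min, nine doses from 1 μM.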

IC50 [1] | IC50 [2] | Compound
≤ 100 nM | ≤ 100 nM | COCCOc1cc2nccc(Oc3ccc(NC(=O)c4cnc(C)c(C5=CCOCC5)c4O)cc3F)c2nc1OC [Compound 35, 5-(3,6-Dihydro-2H-pyran-4-yl)-N-[3-fluoro-4-[[6-methoxy-7-(2-methoxyethoxy)-1,5-naphthyridin-4-yl]oxy]phenyl]-4-hydroxy-6-methylpyridine-3-carboxamide]
≤ 100 nM | ≤ 100 nM | COc1cc2nccc(Oc3ccc(NC(=O)c4cn(CCF)c(C)c(C5=CCCC5)c4=O)cc3F)c2nc1OC [Compound 11, 5-(Cyclopenten-1-yl)-N-[4-[(6,7-dimethoxy-1,5-naphthyridin-4-yl)oxy]-3-fluorophenyl]-1-(2-fluoroethyl)-6-methyl-4-oxopyridine-3-carboxamide]
100 to 300 nM | > 300 nM | COc1cc2nccc(Oc3ccc(NC(=O)c4c(C)ccn(C(C)C)c4=O)cc3F)c2nc1OC [Compound 38, N-[4-[(6,7-Dimethoxy-1,5-naphthyridin-4-yl)oxy]-3-fluorophenyl]-4-methyl-2-oxo-1-propan-2-ylpyridine-3-carboxamide]
≤ 100 nM | ≤ 100 nM | COc1cc2nccc(Oc3ccc(NC(=O)c4c5n(cc(C6=CCCCC6)c4=O)CCOC5)cc3)c2nc1OC [Compound G1-5, 7-(Cyclohexen-1-yl)-N-[4-[(6,7-dimethoxy-1,5-naphthyridin-4-yl)oxy]phenyl]-8-oxo-3,4-dihydro-1H-pyrido[2,1-c][1,4]oxazine-9-carboxamide]
≤ 100 nM | ≤ 100 nM | COc1cc2nccc(Oc3ccc(NC(=O)c4c(C)c(Br)c(C)n(C5CCCC5)c4=O)cc3F)c2nc1OC [Compound 22, 5-Bromo-1-cyclopentyl-N-[4-[(6,7-dimethoxy-1,5-naphthyridin-4-yl)oxy]-3-fluorophenyl]-4,6-dimethyl-2-oxopyridine-3-carboxamide]
≤ 100 nM | ≤ 100 nM | COc1cc2nccc(Oc3ccc(NC(=O)c4cn(C)c(C)c(C5=CCCC5)c4=O)cc3F)c2nc1OC [Compound 1, 5-(Cyclopenten-1-yl)-N-[4-[(6,7-dimethoxy-1,5-naphthyridin-4-yl)oxy]-3-fluorophenyl]-1,6-dimethyl-4-oxopyridine-3-carboxamide]
> 300 nM | ≤ 100 nM | C=C(C)n1c(C)cc(C)c(C(=O)Nc2ccc(Oc3ccnc4cc(OC)cnc34)c(F)c2)c1=O [Compound 21, N-[3-Fluoro-4-[(7-methoxy-1,5-naphthyridin-4-yl)oxy]phenyl]-4,6-dimethyl-2-oxo-1-prop-1-en-2-ylpyridine-3-carboxamide]
≤ 100 nM | ≤ 100 nM | COc1cc2nccc(Oc3ccc(NC(=O)c4cnc(C)c(C5=CCOCC5)c4O)cc3)c2cc1OC [Compound 17, 5-(3,6-Dihydro-2H-pyran-4-yl)-N-[4-(6,7-dimethoxyquinolin-4-yl)oxyphenyl]-4-hydroxy-6-methylpyridine-3-carboxamide]
> 300 nM | > 300 nM | COCCOc1cc2nccc(Oc3cc(F)c(NC(=O)c4c(C)nc(C)c(C(N)=O)c4O)cc3F)c2nc1OC [Compound 86, 3-N-[2,5-Difluoro-4-[[6-methoxy-7-(2-methoxyethoxy)-1,5-naphthyridin-4-yl]oxy]phenyl]-4-hydroxy-2,6-dimethylpyridine-3,5-dicarboxamide]
≤ 100 nM | ≤ 100 nM | COc1cnc2c(Oc3ccc(NC(=O)c4cnc(C)c(C5=CCOCC5)c4O)cc3F)ccnc2c1 [Compound 1-4, 5-(3,6-Dihydro-2H-pyran-4-yl)-N-[3-fluoro-4-[(7-methoxy-1,5-naphthyridin-4-yl)oxy]phenyl]-4-hydroxy-6-methylpyridine-3-carboxamide]
≤ 100 nM | > 300 nM | COc1cc2nccc(Oc3ccc(NC(=O)c4cnc(C)c(/C=C/CC(C)C)c4O)cc3F)c2nc1OC [Compound 28, N-[4-[(6,7-Dimethoxy-1,5-naphthyridin-4-yl)oxy]-3-fluorophenyl]-4-hydroxy-6-methyl-5-[(E)-4-methylpent-1-enyl]pyridine-3-carboxamide]
≤ 100 nM | ≤ 100 nM | COc1cc2nccc(Oc3ccc(NC(=O)c4cnc(C)c(C5=CCCCC5)c4O)cc3F)c2cc1OC [Compound 23, 5-(Cyclohexen-1-yl)-N-[4-(6,7-dimethoxyquinolin-4-yl)oxy-3-fluorophenyl]-4-hydroxy-6-methylpyridine-3-carboxamide]
≤ 100 nM | > 300 nM | COc1ccc2nccc(Oc3ccc(NC(=O)c4cnc(C)c(C5=CCOCC5)c4O)cc3F)c2n1 [Compound 1-5, 5-(3,6-Dihydro-2H-pyran-4-yl)-N-[3-fluoro-4-[(6-methoxy-1,5-naphthyridin-4-yl)oxy]phenyl]-4-hydroxy-6-methylpyridine-3-carboxamide]
≤ 100 nM | ≤ 100 nM | COc1cnc2c(Oc3ccc(NC(=O)c4cnc(C)c(C5=CCCC5)c4O)cc3F)ccnc2c1 [Compound 1-9, 5-(Cyclopenten-1-yl)-N-[3-fluoro-4-[(7-methoxy-1,5-naphthyridin-4-yl)oxy]phenyl]-4-hydroxy-6-methylpyridine-3-carboxamide]
≤ 100 nM | > 300 nM | COc1cc2nccc(Oc3cc(F)c(NC(=O)c4c(C)n(C)c(C)c(C5CC5)c4=O)cc3F)c2nc1OC [Compound 47, 5-Cyclopropyl-N-[4-[(6,7-dimethoxy-1,5-naphthyridin-4-yl)oxy]-2,5-difluorophenyl]-1,2,6-trimethyl-4-oxopyridine-3-carboxamide]
≤ 100 nM | ≤ 100 nM | COCCOc1cc2nccc(Oc3ccc(NC(=O)c4cnc(C)c(/C=C/C5CCCC5)c4O)cc3F)c2nc1OC [Compound 36, 5-[(E)-2-Cyclopentylethenyl]-N-[3-fluoro-4-[[6-methoxy-7-(2-methoxyethoxy)-1,5-naphthyridin-4-yl]oxy]phenyl]-4-hydroxy-6-methylpyridine-3-carboxamide]
≤ 100 nM | > 300 nM | COc1cc2nccc(Oc3ccc(NC(=O)c4c(C)n(C)c(C)c(/C=C/C5CC5)c4=O)cc3F)c2nc1OC [Compound 50, 5-[(E)-2-Cyclopropylethenyl]-N-[4-[(6,7-dimethoxy-1,5-naphthyridin-4-yl)oxy]-3-fluorophenyl]-1,2,6-trimethyl-4-oxopyridine-3-carboxamide]
≤ 100 nM | ≤ 100 nM | COc1cc2nccc(Oc3ccc(NC(=O)c4c(C)nc(C)c(C(C)C)c4O)cc3)c2nc1OC [Compound 9, N-[4-[(6,7-Dimethoxy-1,5-naphthyridin-4-yl)oxy]phenyl]-4-hydroxy-2,6-dimethyl-5-propan-2-ylpyridine-3-carboxamide]
≤ 100 nM | > 300 nM | CNC(=O)c1c(C)nc(C)c(C(=O)Nc2ccc(Oc3ccnc4cc(OC)c(OC)nc34)c(F)c2)c1O [Compound 97, 3-N-[4-[(6,7-Dimethoxy-1,5-naphthyridin-4-yl)oxy]-3-fluorophenyl]-4-hydroxy-5-N,2,6-trimethylpyridine-3,5-dicarboxamide]
≤ 100 nM | ≤ 100 nM | COCCOc1cc2nccc(Oc3ccc(NC(=O)c4c(C)n(C)c(C)c(C5=CCCC5)c4=O)cc3F)c2nc1OC [Compound 42, 5-(Cyclopenten-1-yl)-N-[3-fluoro-4-[[6-methoxy-7-(2-methoxyethoxy)-1,5-naphthyridin-4-yl]oxy]phenyl]-1,2,6-trimethyl-4-oxopyridine-3-carboxamide]
≤ 100 nM | ≤ 100 nM | COc1cc2nccc(Oc3ccc(NC(=O)c4cnc(C)c(/C=C/CC(C)C)c4O)cc3F)c2cc1OC [Compound 29, N-[4-(6,7-Dimethoxyquinolin-4-yl)oxy-3-fluorophenyl]-4-hydroxy-6-methyl-5-[(E)-4-methylpent-1-enyl]pyridine-3-carboxamide]
> 300 nM | > 300 nM | COc1cc2nccc(Oc3ccc(NC(=O)c4c(C)nc(C)c(C(N)=O)c4O)cc3)c2nc1OC [Compound 85, 3-N-[4-[(6,7-Dimethoxy-1,5-naphthyridin-4-yl)oxy]phenyl]-4-hydroxy-2,6-dimethylpyridine-3,5-dicarboxamide]
> 300 nM | > 300 nM | COc1cc2nccc(Oc3ccc(NC(=O)c4c(C)n(C)c(C)c(C#N)c4=O)cc3)c2nc1OC [Compound 82, 5-Cyano-N-[4-[(6,7-dimethoxy-1,5-naphthyridin-4-yl)oxy]phenyl]-1,2,6-trimethyl-4-oxopyridine-3-carboxamide]
